# Measurements taken from PubChem BioAssay AID463074 (Broad Institute, 2010).
# Active and inactive are the calls of the source.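 Rule for the calls: active = AC50 no more than tenfold above the top dose tested, or full inhibition at every dose with a flat fit (cut at about 19 µM in these data); inconclusive = flat curve fit with inhibition between 30% and 70%, or poor fit; inactive = AC50 more than tenfold above the top dose tested.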
# Tested on: HMLE_sh_eGFP viability, CellTiter-Glo luminescence, 72 h
# Experiment: viability loss of HMLE_sh_eGFP cells – cell-based, luminescence, counter-screen for HMLE_sh_ECad selective toxicity project, dose response (AID 463074);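 note: counterscreen control line to flag general toxicity for the HMLE_sh_ECad screen; potency for loss of viability as luminescence drops below DMSO wells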
row,SMILES,AC50
1,COC(=O)c1c(-c2ccc(N(C)C)cc2)sc2ccc(OC)cc12,> 19.5 µM (inactive)
2,S=C(NCCC(c1ccccc1)c1ccccc1)Nc1cccc(Cl)c1,2.79 µM
3,S=C(Nc1cc(Cl)cc(Cl)c1)NC1CCN(Cc2ccccc2)CC1,4.23 µM
4,Cn1nc(-c2ccccc2F)c2cc(C(=O)Nc3ccc4c(c3)OCCO4)sc21,> 19.5 µM (inactive)
5,CCN(CC(=O)Nc1ccc(NC(C)=O)cc1)C(=O)c1ccccc1CCc1ccccc1,> 19.5 µM (inactive)
6,O=C(CSc1ncnc2nc[nH]c12)c1ccc(Cl)cc1,6.23 µM
7,O=c1cc(NS(=O)(=O)c2ccccc2)nc(SCc2ccc(Cl)cc2)[nH]1,5.9 µM
8,Cc1ccc(Nc2cc(C)nc(NCc3ccccc3)n2)cc1,4.86 µM
9,COc1ccc(Br)cc1C(=O)NC(=S)Nc1cc(-c2nc3ccccc3[nH]2)ccc1C,> 19.5 µM (inactive)
10,COc1ccc(NC(=O)c2cc(-c3ccccc3OC)on2)cc1,0.983 µM
11,C[C@@H]1CN([C@@H](C)CO)C(=O)Cc2cc(NC(=O)Nc3ccc(C(F)(F)F)cc3)ccc2O[C@@H]1CN(C)S(=O)(=O)c1ccc(Cl)cc1,1.78 µM
12,Cc1ccnc(NC(=O)CSc2cc(=O)n(C)c3ccccc23)c1,8.16 µM
13,CCCCNc1c(-c2ccc(OC)c(SC(C)CC)c2)nc2ccc(C)cn12 (stereo not drawn),6.78 µM
14,Cc1nc2ccccc2n1/N=C/c1ccc([N+](=O)[O-])o1,13.9 µM
15,C=C(CC1([C@@H](NP(=O)(c2ccccc2)c2ccccc2)[C@H]2C[C@@H]2CCCC)CC1)c1ccccc1,4.57 µM
16,O=C(CCC(=O)N1CCN(c2ccc(O)cc2)CC1)c1ccc(Br)cc1,2.64 µM
17,C#CCOCCOCCOCCNc1nc(N2CCN(C(=O)CCCCCCCCCCNC(=O)Cn3cc(C[C@@H](C)O)nn3)CC2)nc(N2CCN(C(=O)CCCCCCCCCCNC(=O)[C@H](CCCCN)n3cc(C[C@@H](C)CC)nn3)CC2)n1,6.8 µM
18,O=C(O)CCCCCN1C(=O)/C(=C\c2cn(-c3ccccc3)nc2-c2cccs2)SC1=S,3.5 µM
19,C/C(=N/NC(=O)c1ccc(-c2ccccc2)cc1)c1cc(O)cc(O)c1,3.85 µM

row,SMILES,AC50
1,Cc1ccc(-c2nc(CS(=O)CC(=O)NCc3ccc4c(c3)OCO4)c(C)o2)cc1 (stereo not drawn),> 19.5 µM (inactive)
2,COc1ccc2nc(C)cc(SCC(=O)N/N=C/c3ccc(O)cc3O)c2c1,2.33 µM
3,O=C(Nc1cc(C(F)(F)F)ccc1N1CCCCC1)c1ccc(Br)o1,8.32 µM
4,COc1cc(OC)cc(C(=O)NCCNc2nc3cc(C)cc(C)c3cc2C#N)c1,> 19.5 µM (inactive)
5,COc1ccc(-c2c(-c3cc(OC)cc(OC)c3)n(C)c3ccc(-c4cc(F)cc(OC)c4)cc23)cc1,> 19.5 µM (inactive)
6,O=[N+]([O-])c1ccc(/C=N/n2cnc3ccccc32)s1,6.83 µM
7,CS(=O)(=O)Nc1ccccc1C(=O)Nc1cccc(Cl)c1,> 19.5 µM (inactive)
8,O=C(O)CCn1cc(/C=C/C(=O)c2ccc(Cl)cc2)c(-c2ccc(Br)cc2)n1,7.09 µM
9,O=C(Nc1ccc(-c2csc(Nc3ccc(Cl)cc3)n2)cc1)c1cc([N+](=O)[O-])cc(C(F)(F)F)c1,3.08 µM
10,CCCc1ccc(-c2cc(NC(=O)CSc3n[nH]c(N)n3)n(-c3ccccc3)n2)cc1,6.1 µM
11,CN1CCN(c2ccccc2NC(=O)c2ccc(-c3ccc(Cl)c(Cl)c3)o2)CC1,6.68 µM
12,CN1CCN(c2ccc(NC(=O)c3ccc(C#N)cc3F)cc2Cl)CC1,19.7 µM
13,COc1ccc(C)cc1NC(=O)CSc1nnc(COc2ccc(Cl)cc2)n1Cc1ccco1,8.28 µM
14,O=C(Nc1ccc(S(=O)(=O)N2CCOCC2)cc1)c1cc(-c2cc(Cl)ccc2O)n[nH]1,2.18 µM
15,CCN1CCN(Cc2ccc(NC(=O)c3cc(NC(=O)c4cnn(-c5ccccc5)c4N)cc(OC)c3)cc2C(F)(F)F)CC1,6.76 µM
16,CCCc1cc(=O)[nH]c(SCC(=O)Nc2sc(C(N)=O)c(C)c2C(=O)OCCOC)n1,4.25 µM
17,COc1ccc(Br)cc1C(=O)Nc1cccc(C)c1,> 19.5 µM (inactive)
18,CCn1c(=O)c(C(=O)NCc2ccccc2OC)c(O)c2ccccc21,17.4 µM
19,CCC(C)n1c(-c2cccs2)nc2nc3ccccc3nc21 (stereo not drawn),15.5 µM
